This is an account of results in PubChem BioAssay (NCI).

Test systems include SNB-75 CNS; LOX IMVI melanoma; MOLT-4 leukemia; OVCAR-8 ovarian; SW-620 colon; NCI/ADR-RES ovarian; RXF 393 renal; HOP-92 NSCLC; IGROV1 ovarian.
Common to all, as to test: growth of human tumour cells (NCI), 48 h

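Method: 48-hour compound exposure of cells in 96-well plates, five concentrations, linear interpolation of endpoints. The concentration for 50% growth inhibition is given as GI50. TGI denotes the concentration required for complete inhibition of growth.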

Take `O=C1c2ccn(CCCNC(CO)(CO)CO)c2C(=O)c2c1c(O)c1ccccc1c2O`: the GI50 with SNB-75 CNS is over 75.2 µM; with LOX IMVI melanoma, 13.1 µM; in the assay with MOLT-4 leukemia, 2.54 µM; in the assay with OVCAR-8 ovarian, 15 µM; with SW-620 colon it was 4.09 µM; in the assay with NCI/ADR-RES ovarian, 10.7 µM. Also, the values for the GI50 in the assay on RXF 393 renal, with HOP-92 NSCLC and in the assay on IGROV1 ovarian were 24.2 µM, 40 µM and 9.27 µM, respectively. Further, the TGI in the assay with SNB-75 CNS is over 100 µM; in the assay with LOX IMVI melanoma it was 29.7 µM; in the assay on MOLT-4 leukemia it was over 37.2 µM; in the assay on OVCAR-8 ovarian, 36.9 µM; in the assay with SW-620 colon it was 18.6 µM; with NCI/ADR-RES ovarian it was 26.7 µM. The values for the TGI in the assay with RXF 393 renal, in the assay on HOP-92 NSCLC and in the assay with IGROV1 ovarian were over 61 µM, over 86.9 µM and 56.8 µM, respectively.

Regarding `COc1ccc(/C=C\c2cc(OC)c(OC)c(OC)c2)cc1OC(=O)CC(N)C(=O)O` (stereo unspecified), the GI50 in the assay with SNB-75 CNS is 0.00286 µM; in the assay on LOX IMVI melanoma it was 6.39e-05 µM; in the assay with MOLT-4 leukemia, 0.00172 µM; with OVCAR-8 ovarian, 0.00195 µM; in the assay on SW-620 colon it was 0.000318 µM; in the assay with RXF 393 renal, 0.00122 µM. The GI50 with HOP-92 NSCLC is 0.00339 µM; in the assay on IGROV1 ovarian, 0.00355 µM. In addition, the TGI in the assay on SW-620 colon was over 100 µM; in the assay on NCI/ADR-RES ovarian it was 0.000534 µM; with HOP-92 NSCLC, 77.3 µM; in the assay with IGROV1 ovarian, over 100 µM.

For the compound `Cc1cc2c3c([n+](C)c4ccc(F)cc4c3c1)-c1cc(F)ccc1N2C`, the GI50 is 11 µM in the assay with SNB-75 CNS; 20.7 µM with LOX IMVI melanoma; 3.28 µM with MOLT-4 leukemia; 15.2 µM in the assay with OVCAR-8 ovarian; 13.5 µM in the assay with SW-620 colon; over 100 µM in the assay with NCI/ADR-RES ovarian. The GI50 is over 100 µM in the assay on RXF 393 renal, 16.4 µM with HOP-92 NSCLC and 19.9 µM in the assay on IGROV1 ovarian. Also, the TGI was 41.5 µM with SNB-75 CNS; 68.6 µM in the assay on LOX IMVI melanoma; over 100 µM with MOLT-4 leukemia; over 100 µM with OVCAR-8 ovarian; over 100 µM in the assay with SW-620 colon; over 100 µM with NCI/ADR-RES ovarian. Besides, the TGI was over 100 µM in the assay on RXF 393 renal, 46 µM in the assay on HOP-92 NSCLC and over 100 µM with IGROV1 ovarian.

For `C[C@]12CC(C=O)C(=O)C(O)=C1CC[C@@H]1C2CC[C@@]2(C)C1CC[C@]2(C)O` (stereo partly specified), the TGI in the assay on SNB-75 CNS was 45.9 µM; in the assay with LOX IMVI melanoma, 24.7 µM; in the assay with MOLT-4 leukemia, 52 µM; in the assay with OVCAR-8 ovarian it was 89.9 µM; with SW-620 colon it was over 100 µM; in the assay on RXF 393 renal it was 37.3 µM. Moreover, the results for the TGI in the assay on HOP-92 NSCLC and in the assay on IGROV1 ovarian were 33.4 µM and 47.5 µM, respectively.

Regarding `COC(=O)c1ccc(C(=O)OC)c2nc3cc(Cl)ccc3nc12`, the TGI in the assay with SNB-75 CNS, with LOX IMVI melanoma, in the assay on MOLT-4 leukemia, in the assay with OVCAR-8 ovarian, with SW-620 colon and in the assay on HOP-92 NSCLC was over 100 µM throughout. For the same compound, the TGI with IGROV1 ovarian was over 100 µM.

Take `Cc1cc(Cl)nc(N(CCCNc2ccnc3cc(Cl)ccc23)Cc2cccs2)n1`: the GI50 was 2.08 µM in the assay on SNB-75 CNS; 1.22 µM in the assay with LOX IMVI melanoma; 1.77 µM in the assay with MOLT-4 leukemia; 2.06 µM in the assay on OVCAR-8 ovarian; 1.1 µM in the assay on SW-620 colon; 1.06 µM in the assay on NCI/ADR-RES ovarian. The GI50 in the assay on RXF 393 renal was 1.37 µM; in the assay with HOP-92 NSCLC, 1.74 µM; with IGROV1 ovarian it was 0.856 µM. Further, the TGI stood at 13.6 µM in the assay on SNB-75 CNS; 2.98 µM with LOX IMVI melanoma; 11.8 µM with MOLT-4 leukemia; 10.4 µM in the assay with OVCAR-8 ovarian; 8.75 µM in the assay on SW-620 colon; 6.53 µM in the assay on NCI/ADR-RES ovarian. Moreover, the TGI amounted to 5.22 µM in the assay on RXF 393 renal, 7.78 µM in the assay on HOP-92 NSCLC and 6.2 µM in the assay on IGROV1 ovarian.

For the compound `COc1ccc2c(CCCc3ccc(Cl)cc3Cl)c3[n+](cc2c1OC)CCc1cc2c(cc1-3)OCO2`, the GI50 was 0.37 µM with LOX IMVI melanoma, 0.383 µM in the assay with SW-620 colon, 7.74 µM with NCI/ADR-RES ovarian and 0.228 µM in the assay with HOP-92 NSCLC. In addition, the TGI with LOX IMVI melanoma worked out at 1.44 µM; with SW-620 colon, 1.58 µM; with NCI/ADR-RES ovarian it was 54.2 µM; with HOP-92 NSCLC it was 1.14 µM.

Turning to `Cc1cc(-c2nc3n(c2/C=N/N=C(N)N)CCS3)c(C)s1`, the GI50 in the assay on SNB-75 CNS is 29.9 µM; in the assay on LOX IMVI melanoma, 15 µM; with MOLT-4 leukemia, 30.1 µM; in the assay with OVCAR-8 ovarian it was 32.6 µM; with SW-620 colon, 18.5 µM; in the assay with NCI/ADR-RES ovarian it was 74.4 µM. The TGI is 48.8 µM in the assay with SNB-75 CNS; 29.1 µM in the assay with LOX IMVI melanoma; over 100 µM in the assay on MOLT-4 leukemia; 63.4 µM in the assay with OVCAR-8 ovarian; 35 µM in the assay with SW-620 colon; over 100 µM in the assay on NCI/ADR-RES ovarian.

As for `COC(=O)c1ccc(NC(=O)c2ccc(NC3=C(Cl)C(=O)N(Cc4ccccc4)C3=O)cc2)cc1`, the GI50 is 28.8 µM in the assay on SNB-75 CNS; 13.3 µM with LOX IMVI melanoma; 13 µM with MOLT-4 leukemia; 11 µM in the assay on OVCAR-8 ovarian; 15.1 µM in the assay on SW-620 colon; 14 µM in the assay on NCI/ADR-RES ovarian. Also, the GI50 was 22.9 µM in the assay on RXF 393 renal, 12.8 µM in the assay with HOP-92 NSCLC and 1.53 µM with IGROV1 ovarian. Besides, the TGI in the assay with SNB-75 CNS came to 64.4 µM; in the assay with LOX IMVI melanoma, 26 µM; in the assay with MOLT-4 leukemia, 25.6 µM; in the assay with OVCAR-8 ovarian it was 24.7 µM; in the assay on SW-620 colon it was 33 µM; in the assay with NCI/ADR-RES ovarian, 27 µM. Also, the TGI came out at 48.3 µM in the assay with RXF 393 renal, 25.4 µM in the assay on HOP-92 NSCLC and 11.2 µM in the assay with IGROV1 ovarian.

`COc1cc2c3c(n(CCN4CCOCC4)c(=O)c2cc1OC)-c1ccccc1C3=O`: the GI50 in the assay with SNB-75 CNS was over 100 µM; in the assay on LOX IMVI melanoma it was 45.5 µM; in the assay with MOLT-4 leukemia, 55.5 µM; in the assay with OVCAR-8 ovarian it was over 100 µM; in the assay on SW-620 colon, 89.2 µM; with NCI/ADR-RES ovarian, over 100 µM. Further, the GI50 is over 100 µM in the assay on RXF 393 renal, over 100 µM in the assay on HOP-92 NSCLC and 17.2 µM in the assay with IGROV1 ovarian. Moreover, the TGI in the assay with SNB-75 CNS, with LOX IMVI melanoma, with MOLT-4 leukemia, in the assay with OVCAR-8 ovarian, in the assay with SW-620 colon and with NCI/ADR-RES ovarian was over 100 µM each time. In addition, the TGI in the assay with RXF 393 renal, in the assay on HOP-92 NSCLC and with IGROV1 ovarian was over 100 µM throughout.

In the case of `Nn1c(-c2cccc(Cl)c2)nc2ccccc2c1=O`, the TGI in the assay on SNB-75 CNS, with MOLT-4 leukemia, with OVCAR-8 ovarian, in the assay with SW-620 colon, with HOP-92 NSCLC and with IGROV1 ovarian was over 100 µM throughout.

Turning to `CC(=O)[CH-]C(=O)c1ccccc1.CC(=O)[CH-]C(=O)c1ccccc1.CC[C@H](/C=C/C(C)[C@H]1CCC2[C@@H]3CC=C4C[C@@H]([O-])CC[C@]4(C)C3CC[C@@]21C)C(C)C.CC[C@H](/C=C/C(C)[C@H]1CCC2[C@@H]3CC=C4C[C@@H]([O-])CC[C@]4(C)C3CC[C@@]21C)C(C)C.Cl.[Ti+4]` (stereo partly specified), the GI50 with LOX IMVI melanoma, in the assay with MOLT-4 leukemia, in the assay with OVCAR-8 ovarian, with SW-620 colon, in the assay on RXF 393 renal and with IGROV1 ovarian was over 25 µM each time. Further, the TGI in the assay with LOX IMVI melanoma, with MOLT-4 leukemia, in the assay with OVCAR-8 ovarian, in the assay on SW-620 colon, in the assay on RXF 393 renal and in the assay with IGROV1 ovarian was over 25 µM throughout.

For the compound `CCn1cc(C(=O)N/N=C/c2cccs2)c(=O)c2cc(F)c(N3CCNC(C)C3)c(F)c21` (stereo unspecified), the GI50 in the assay with SNB-75 CNS is 1.47 µM; in the assay on SW-620 colon it was 1.71 µM; in the assay on NCI/ADR-RES ovarian, 1.8 µM; with RXF 393 renal, 1.47 µM; in the assay on HOP-92 NSCLC, 1.09 µM. For the same compound, the TGI is 2.83 µM with SNB-75 CNS; 3.17 µM with SW-620 colon; 3.48 µM in the assay on NCI/ADR-RES ovarian; 3 µM in the assay on RXF 393 renal; 2.38 µM in the assay on HOP-92 NSCLC.

For the compound `CN(CCCN1C(=O)c2cccc3cc([N+](=O)[O-])cc(c23)C1=O)CCN(C)CCCN1C(=O)c2cccc3cc([N+](=O)[O-])cc(c23)C1=O`, the TGI in the assay on SNB-75 CNS, with MOLT-4 leukemia, with OVCAR-8 ovarian, with SW-620 colon, with RXF 393 renal and in the assay on IGROV1 ovarian was over 39.3 µM each time.

`COc1cc2c3c(n([C@@H]4CCOC4)c(=O)c2cc1OC)-c1cc2c(cc1C3=O)OCO2`: the GI50 with MOLT-4 leukemia is under 0.01 µM; in the assay with OVCAR-8 ovarian, 0.0132 µM; with SW-620 colon it was under 0.01 µM; in the assay on NCI/ADR-RES ovarian, under 0.01 µM; in the assay with IGROV1 ovarian, 0.0537 µM. The TGI with MOLT-4 leukemia, in the assay on OVCAR-8 ovarian, in the assay with SW-620 colon, in the assay on NCI/ADR-RES ovarian and in the assay on IGROV1 ovarian was over 100 µM throughout.
